From patent US11214803B2, “Modulators of YAP1 expression” (Ionis Pharmaceuticals, Inc., priority 2019, dated 2022)
Strand notation (5' to 3'): a small letter for the sugar, then the base; units joined by * are phosphorothioate-linked, units joined directly phosphodiester-linked; [ ] holds rarer units or linkages, { } end groups; capitals alone tell only the bases. k = constrained ethyl (cEt); [5mC] = 5-methylcytosine; d = 2'-deoxy (DNA)

Test system: Yap1 mRNA
Assay: Antisense inhibition of human Yap1 in A-431 cells by cEt gapmers, single dose (Example 3, RTS36584)
Type: cell-based
Procedure: Modified oligonucleotides were designed to target a Yap1 nucleic acid and were tested for their effect on Yap1 mRNA level in vitro. The modified oligonucleotides were tested in a series of experiments that had similar culture conditions. Cultured A-431 cells at a density of 5,000 cells per well were treated using free uptake with 2,000 nM of modified oligonucleotide. After a treatment period of approximately 48 hours, RNA was isolated from the cells and Yap1 mRNA levels were measured by quantitative real-time RTPCR. Human primer probe set RTS36584 (forward sequence […], designated herein as SEQ ID NO.: 14; reverse sequence […], designated herein as SEQ ID NO.: 15; probe sequence […], designated herein as SEQ ID NO.: 16) was used to measure mRNA levels. Yap1 mRNA levels were normalized to total RNA content, as measured by RIBOGREEN®. Results are presented in the tables below as percent control of the amount of Yap1 mRNA relative to untreated control cells (% UTC). The modified oligonucleotides with percent control values marked with an asterisk (*) target the amplicon region of the primer probe set. Additional assays may be used to measure the potency and efficacy of the modified oligonucleotides targeting the amplicon region.
The newly designed modified oligonucleotides in the Tables below were designed as 3-10-3 cEt gapmers. The gapmers are 16 nucleosides in length, wherein the central gap segment comprises of ten 2′-deoxynucleosides and is flanked by wing segments on the 5′ direction and the 3′ direction comprising three nucleosides each. Each nucleoside in the 5′ wing segment and each nucleoside in the 3′ wing segment has a cEt sugar modification. The internucleoside linkages throughout each gapmer are phosphorothioate (P═S) linkages. All cytosine residues throughout each gapmer are 5-methylcytosines.
“Start site” indicates the 5′-most nucleoside to which the gapmer is targeted in the human gene sequence. “Stop site” indicates the 3′-most nucleoside to which the gapmer is targeted human gene sequence. […] Activity of the modified oligonucleotide may be defined in a different experiment.

[1] = Table 11, A-431 cells, 5,000 cells per well, free uptake, 2,000 nM oligonucleotide, approx. 48 hours, primer probe set RTS36584, Yap1 mRNA normalized to RIBOGREEN, percent of untreated control
[2] = Table 13, A-431 cells, 5,000 cells per well, free uptake, 2,000 nM modified oligonucleotide, approx. 48 hours, RTS36584, normalized to RIBOGREEN, Yap1 mRNA relative to untreated control cells
[3] = Table 10, A-431 cells, 5,000 cells per well, free uptake, 2,000 nM oligonucleotide, approx. 48 hours, primer probe set RTS36584, Yap1 mRNA normalized to RIBOGREEN, percent of untreated control
[4] = Table 34, Yap1 mRNA as percent of untreated control, 3-10-3 cEt gapmers targeting SEQ ID NO: 1 and 2, single dose
[5] = Table 27, Yap1 mRNA by 3-10-3 cEt gapmers targeting SEQ ID NO.: 1, and 2, percent of untreated control
[6] = Table 9, A-431 cells, 5,000 cells per well, free uptake, 2,000 nM, approximately 48 hours, RTS36584, normalized to RIBOGREEN, Yap1 mRNA relative to untreated control cells
[7] = Table 8, A-431 cells, 5,000 cells per well, free uptake, 2,000 nM, approximately 48 hours, RTS36584, normalized to RIBOGREEN, Yap1 mRNA relative to untreated control cells
[8] = Table 35, Yap1 mRNA as percent of untreated control, 3-10-3 cEt gapmers targeting SEQ ID NO: 1 and 2, single dose
[9] = Table 28, Yap1 mRNA as percent of untreated control, 3-10-3 cEt gapmers targeting SEQ ID NO.: 1, and 2

## 958803 (antisense kG*kA*kT*dA*dA*dT*d[5mC]*dA*dT*d[5mC]*d[5mC]*dT*d[5mC]*kA*kG*k[5mC]) [Compound 958803]
[1]
  YAP1 (% UTC): 24 % UTC

## 958545 (kA*k[5mC]*kT*d[5mC]*dT*dA*dG*dT*dT*dA*d[5mC]*dA*dT*k[5mC]*kA*kT; antisense) [Compound 958545]
[2]
  YAP1 (% UTC): 3 % UTC

## 958547 (k[5mC]*kA*k[5mC]*dA*dT*dA*d[5mC]*dT*d[5mC]*dT*dA*dG*dT*kT*kA*k[5mC]; antisense) [Compound 958547]
[3]
  YAP1 (% UTC): 4 % UTC

## 958442 (antisense kG*kG*kA*dG*dA*dA*dG*d[5mC]*dG*dG*d[5mC]*dG*dA*k[5mC]*kG*kG) [Compound 958442]
[3]
  YAP1 (% UTC): 21 % UTC

## 1075188 (kA*kG*kT*d[5mC]*dA*dA*d[5mC]*d[5mC]*dT*dG*dT*dA*dA*kT*kT*kA; antisense) [compound 1075188]
[4]
  YAP1 (% UTC): 14 % UTC

## 958687 (antisense kA*k[5mC]*kA*d[5mC]*dT*dA*dT*dG*dT*dG*dT*dT*d[5mC]*kT*kG*k[5mC]) [Compound 958687]
[3]
  YAP1 (% UTC): 57 % UTC

## 958463 (antisense k[5mC]*k[5mC]*kT*dG*dA*dG*dA*d[5mC]*dA*dT*d[5mC]*d[5mC]*d[5mC]*kG*kG*kG) [Compound 958463]
[1]
  YAP1 (% UTC): 63 % UTC

## 958603 (kT*kG*kG*dT*dA*dT*dG*dA*dA*dT*dT*d[5mC]*dT*kG*kA*kA; antisense) [Compound 958603]
[1]
  YAP1 (% UTC): 3 % UTC

## 958470 (antisense kT*kA*kG*dA*dT*d[5mC]*d[5mC]*dT*dT*d[5mC]*dA*d[5mC]*dA*kG*kA*kT) [Compound 958470]
[2]
  YAP1 (% UTC): 18 % UTC

## 1076269 (kG*kA*k[5mC]*dG*dA*dA*dA*dA*dA*dT*dA*dT*dT*k[5mC]*kT*kT; antisense) [compound 1076269]
[5]
  YAP1 (% UTC): 28 % UTC

## 958636 (antisense k[5mC]*k[5mC]*kG*d[5mC]*dA*d[5mC]*d[5mC]*dG*d[5mC]*dG*dG*d[5mC]*d[5mC]*k[5mC]*kG*kG) [Compound 958636]
[6]
  YAP1 (% UTC): 126 % UTC

## 958663 (k[5mC]*kT*kA*dT*dT*dA*dG*dG*dG*dA*d[5mC]*dT*dG*kA*kA*k[5mC]; antisense) [Compound 958663]
[1]
  YAP1 (% UTC): 32 % UTC

## 958481 (antisense kG*k[5mC]*kA*dA*d[5mC]*dT*dG*dG*d[5mC]*dT*dT*dA*dT*kG*kG*kA) [Compound 958481]
[6]
  YAP1 (% UTC): 6 % UTC

## 958418 (antisense kA*kG*kA*dG*d[5mC]*d[5mC]*dT*dA*d[5mC]*d[5mC]*dT*dG*dA*k[5mC]*kA*kT) [Compound 958418]
[7]
  YAP1 (% UTC): 47 % UTC

## 1074797 (kA*k[5mC]*kT*d[5mC]*d[5mC]*dA*dA*dA*dT*d[5mC]*dA*dA*dT*kG*kT*kG; antisense) [compound 1074797]
[5]
  YAP1 (% UTC): 31 % UTC

## 1074255 (antisense kT*k[5mC]*kA*dT*d[5mC]*dT*dG*dG*dG*dA*d[5mC]*dA*dG*k[5mC]*kA*kT) [compound 1074255]
Table 29, Yap1 mRNA as percent of untreated control, 3-10-3 cEt gapmers targeting SEQ ID NO.: 1, and 2
  YAP1 (% UTC): 16 % UTC

## 1075413 (antisense k[5mC]*kA*kT*dA*dA*d[5mC]*dT*dA*d[5mC]*dA*dT*d[5mC]*dG*kA*k[5mC]*kA) [compound 1075413]
[8]
  YAP1 (% UTC): 34 % UTC

## 958665 (k[5mC]*kT*kG*d[5mC]*dA*dT*dA*d[5mC]*d[5mC]*d[5mC]*dT*d[5mC]*d[5mC]*kA*kG*k[5mC]; antisense) [Compound 958665]
[2]
  YAP1 (% UTC): 84 % UTC

## 958706 (antisense kT*k[5mC]*kG*d[5mC]*dA*dT*dG*dG*d[5mC]*d[5mC]*dA*d[5mC]*dT*kG*k[5mC]*k[5mC]) [Compound 958706]
[6]
  YAP1 (% UTC): 112 % UTC

## 1074933 (antisense kA*kG*kG*dA*dG*dA*d[5mC]*dT*dA*dT*dA*d[5mC]*dA*kA*k[5mC]*kA) [compound 1074933]
[8]
  YAP1 (% UTC): 72 % UTC

## 958598 (k[5mC]*k[5mC]*k[5mC]*dA*dA*dT*dG*d[5mC]*dT*dA*d[5mC]*d[5mC]*d[5mC]*kA*kA*kT; antisense) [Compound 958598]
[1]
  YAP1 (% UTC): 4 % UTC

## 1074132 (k[5mC]*kG*kG*d[5mC]*d[5mC]*d[5mC]*d[5mC]*dG*d[5mC]*dA*dT*d[5mC]*d[5mC]*k[5mC]*k[5mC]*k[5mC]; antisense) [compound 1074132]
[4]
  YAP1 (% UTC): 96 % UTC

## 958719 (antisense kG*kT*kA*d[5mC]*dA*dT*dA*dA*dT*dG*dG*dG*d[5mC]*kT*kA*kA) [Compound 958719]
Table 12, A-431 cells, 5,000 cells per well, free uptake, 2,000 nM modified oligonucleotide, approx. 48 hours, RTS36584, normalized to RIBOGREEN, Yap1 mRNA relative to untreated control cells
  YAP1 (% UTC): 49 % UTC

## 1074670 (antisense kA*kA*kG*dT*dA*dG*d[5mC]*dT*dT*dT*dG*dA*dT*k[5mC]*kT*kT) [compound 1074670]
[9]
  YAP1 (% UTC): 49 % UTC

## 1074990 (antisense kG*k[5mC]*k[5mC]*dG*d[5mC]*dA*dA*dA*dG*dG*dA*dA*dA*kG*kG*kG) [compound 1074990]
[9]
  YAP1 (% UTC): 108 % UTC

## 1076373 (antisense kA*kA*k[5mC]*dG*dG*dA*dT*dA*dT*dA*d[5mC]*dA*dA*kT*kA*kA) [compound 1076373]
[8]
  YAP1 (% UTC): 10 % UTC

## 958762 (antisense kG*kA*kT*dT*dA*dG*dA*dG*dG*dA*d[5mC]*dT*d[5mC]*kA*kT*kT) [Compound 958762]
[3]
  YAP1 (% UTC): 16 % UTC

## 1076301 (kG*kT*kA*dT*dA*dA*dG*dA*d[5mC]*d[5mC]*dT*dT*dG*kG*kG*kA; antisense) [compound 1076301]
[5]
  YAP1 (% UTC): 34 % UTC

## 958376 (antisense k[5mC]*kT*kG*dG*dG*dA*dT*dT*dG*dA*dT*dA*dT*kT*k[5mC]*k[5mC]) [Compound 958376]
[7]
  YAP1 (% UTC): 31 % UTC

## 1074292 (antisense k[5mC]*kT*kG*dT*dT*dT*d[5mC]*dA*d[5mC]*dT*dG*dG*dA*kG*k[5mC]*kA) [compound 1074292]
[4]
  YAP1 (% UTC): 10 % UTC

## 958577 (kT*k[5mC]*kT*dG*dT*dG*dG*d[5mC]*dT*dA*d[5mC]*dT*dG*kG*k[5mC]*kA; antisense) [Compound 958577]
[3]
  YAP1 (% UTC): 4 % UTC

## 958571 (k[5mC]*kA*kA*d[5mC]*dA*dA*d[5mC]*dA*dT*dG*d[5mC]*dT*dA*kT*kG*kT; antisense) [Compound 958571]
[6]
  YAP1 (% UTC): 43 % UTC

## 958419 (antisense kT*kA*kA*dG*dA*dG*d[5mC]*d[5mC]*dT*dA*d[5mC]*d[5mC]*dT*kG*kA*k[5mC]) [Compound 958419]
[7]
  YAP1 (% UTC): 68 % UTC

## 1074389 (kG*k[5mC]*kA*dG*dA*d[5mC]*dT*dT*dG*dG*d[5mC]*dA*dT*k[5mC]*kA*kG; antisense) [compound 1074389]
[8]
  YAP1 (% UTC): 14 % UTC

## 1076021 (k[5mC]*kA*kT*dT*dA*dA*dT*dA*dA*dA*dG*dT*dT*kA*k[5mC]*k[5mC]; antisense) [compound 1076021]
[8]
  YAP1 (% UTC): 95 % UTC

## 958773 (antisense kA*kG*k[5mC]*dT*dG*dG*dT*dA*dG*dG*dG*d[5mC]*dA*kA*kG*kA) [Compound 958773]
[1]
  YAP1 (% UTC): 43 % UTC

## 1074293 (antisense kG*k[5mC]*kT*dG*dT*dT*dT*d[5mC]*dA*d[5mC]*dT*dG*dG*kA*kG*k[5mC]) [compound 1074293]
[8]
  YAP1 (% UTC): 54 % UTC

## 958482 (antisense kT*k[5mC]*kT*dG*dT*dA*dT*dT*dA*dG*d[5mC]*d[5mC]*dT*kG*kA*kA) [Compound 958482]
[3]
  YAP1 (% UTC): 10 % UTC

## 958781 (antisense kG*kT*k[5mC]*dA*dT*d[5mC]*dT*dA*dT*dG*dT*dG*dT*k[5mC]*k[5mC]*kT) [Compound 958781]
[6]
  YAP1 (% UTC): 6 % UTC

## 1075381 (antisense kT*kA*kT*dT*dA*d[5mC]*d[5mC]*d[5mC]*dT*dA*d[5mC]*dT*d[5mC]*kA*kT*kA) [compound 1075381]
[8]
  YAP1 (% UTC): 89 % UTC
